Test results as given in PMC8360279, “Combination of Polygoni Multiflori Radix Praeparata and Acori Tatarinowii Rhizoma Alleviates Learning and Memory Impairment in Scopolamine-Treated Mice by Regulating Synaptic-Related Proteins” (Frontiers in Pharmacology, 2021).
Counter-ions that a name gives are not always drawn.

Experiments:
in vivo = conditions: male, Sprague-Dawley, rat, po; for Tmax: rat plasma, mean ± S.D., n = 6
Experimental: (§1) Additionally, 18 rats were orally administered PA, PMRP, or ATR once, respectively (6 rats in each group). The doses were 4.32 g/kg for PA, 2.16 g/kg for PMRP or ATR. The whole blood samples were collected at different time points.
(§2) The components of PA were analyzed by HPLC-MS. The samples were separated on a ZORBAX StableBond C18 reversed-phase column (2.1 × 50 mm, 1.8 μm) (Agilent Technologies Co., CA, United States). The autosampler was set at 20 C, and gradient elution was performed with 0.1% formic acid as solvent A and acetonitrile as solvent B. The gradient program was as follows: 0–10 min, 88%–40% A; 10–12 min, 40%–1% A; and 12–15 min, 1% A. The flow rate was set at 0.3 ml min^−1, and the injection volume was 4 μL. The total run time was 15 min for each sample.
(§3) GC-MS analysis was conducted on a 7890A series gas chromatograph coupled to a Model 7,693 autosampler and Model 5975C Inert XL EI MSD with Triple-Axis Detector (Thermo Fisher Scientific). The carrier gas was 99.99% high-purity helium at a flow rate of 1.2 ml/min. Samples were separated on a TG-5MS column (60 × 0.25 mm and 0.25 μm film thickness). The sample volume was 1 μL with a split ratio of 5:1. The oven temperature program was initially set at 100°C for 1 min, then ramped at 10°C/min to 180°C and held for 1 min; ramped at 5°C/min to 210°C and held for 1 min; and ramped at 10°C/min to 260°C and held for 5 min. The total run time was 27 min. The injection port and detector temperatures were 280°C and 300°C, respectively. Electrospray ionization was performed at 70 eV. Selective ion monitoring was set for quantitation with a dwell time of 100 m/ion.
(§4) Male rats (n = 18) were fasted but had free access to water for 12 h prior to administration of PA, PMRP, and ATR (6 rats in each group). Blood samples were collected from the posterior orbital venous plexus of rats before dosing (time 0) and 5, 10, and 30 min and 1, 2, 4, 8, 16, and 24 h after dosing. The samples were immediately centrifuged at 4,500 rpm for 10 min and the separated plasma samples were stored at −80°C until analysis.

[1] = Pharmacokinetics in rat plasma after oral administration of PA, PMRP or ATR (HPLC-MS and GC-MS); conditions: for Tmax: rat plasma, mean ± S.D., n = 6; for Plasma concentration after oral PA compared to the level after PMRP or ATR: rats, PA 4.32 g/kg vs PMRP or ATR 2.16 g/kg
Experimental: as §1, §2, §3, §4

[2] = Chen et al., cited from earlier work
ERK1/2/Nrf2/HO-1 pathway = system: ERK1/2/Nrf2/HO-1 pathway; design: method as in Lai et al. (2020); conditions: by modulating the ERK1/2/Nrf2/HO-1 pathway; ref Lai et al. (2020); cited from earlier work
[3] = male, Sprague-Dawley, rat, in vivo, po, 4.32 g/kg
Experimental: as §1, §2, §3, §4

[4] = system: neurotransmitter levels in the cerebral cortex of scopolamine-treated mice; assay: HPLC-MS analysis of neurotransmitter content in mouse cortical tissue; format: in vivo, Kunming mice; conditions: scopolamine injection 4 mg/kg i.p. vs control mice
[5] = system: P90RSK and PSD95 in the hippocampus; assay: Immunohistochemistry of P90RSK and PSD95 in the hippocampus; format: in vivo, Kunming mice; conditions: scopolamine vs control mice
Experimental: The brain was removed and immediately fixed in 4% paraformaldehyde in PBS. […] After quenching endogenous peroxidase and blocking with normal goat serum, the sections were incubated overnight at 4°C with antibodies against P90RSK and PSD95 (both at 1:5,000). The sections were washed with PBS and incubated with secondary antibodies for 2 h at 37°C, and then stained with 3,3′-diaminobenzidine in chromogen solution; they were then counterstained with hematoxylin, dehydrated in ethanol, cleared in xylene, and mounted with Cytoseal (Thermo Fisher Scientific). P90RSK and PSD95 immunoreactivity was measured using Image Pro Plus v6.0 software (Media Cybernetics, Rockville, MD, United States). Brown staining on the cell membrane or in the cytoplasm was represented positive staining, with the staining intensity reflecting the expression levels of P90RSK and PSD95 proteins.

scopolamine-treated mice = assay: Morris water maze test in scopolamine-treated mice; conditions: scopolamine 4 mg/kg i.p. (dementia model); starting from day 3; p < 0.001
Experimental: The mice were randomly divided into the following eight groups (n = 12 per group): 1) control (normal feeding); 2) model [scopolamine, 4 mg kg^−1⋅day^−1 by intraperitoneal injection (i.p.)]; 3) PAL [scopolamine, 4 mg kg^−1⋅day^−1 i. p. + PA, 1.56 g kg^−1⋅day^−1 by intragastric administration (i.g.)]; 4) PAH (scopolamine, 4 mg kg^−1⋅day^−1 i. p. + PA, 6.24 g kg^−1⋅day^−1 i. g.); 5) PL (scopolamine, 4 mg kg^−1⋅day^−1 i. p. + PMRP, 0.78 g kg^−1⋅day^−1 i. g.); 6) PH (scopolamine, 4 mg kg^−1⋅day^−1 i. p. + PMRP 3.12 g kg^−1⋅day^−1 i. g.); 7) AL (scopolamine, 4 mg kg^−1⋅day^−1 i. p.+ ATR, 0.78 g kg^−1⋅day^−1 i. g.); and 8) AH (scopolamine, 4 mg kg^−1⋅day^−1 i. p. + ATR, 3.12 g kg^−1⋅day^−1 i. g.). Mice in each group were orally administered PA, PMRP, or ATR every day for 30 days; after the last gavage, scopolamine was intraperitoneally injected and the Morris water maze experiment was conducted 40 min later for 6 days.
Spatial memory was assessed with the Morris water maze test as previously described [Lan et al. (2012)], with slight modifications. […] Each mouse was tested twice a day for 5 days and the latency to reach the platform was recorded. […] The time that the mouse spent in the target quadrant (ie, where the platform was previously hidden) and the number of times it crossed the platform were measured. […]

[6] = system: BDNF, TrkB, ERK, p-ERK, CREB, and p-CREB proteins in the hippocampus; assay: Western blot of BDNF/TrkB/ERK/CREB signaling axis components in the hippocampus; conditions: scopolamine treatment vs control mice
Experimental: The mice were randomly divided into the following eight groups (n = 12 per group): 1) control (normal feeding); 2) model [scopolamine, 4 mg kg^−1⋅day^−1 by intraperitoneal injection (i.p.)]; 3) PAL [scopolamine, 4 mg kg^−1⋅day^−1 i. p. + PA, 1.56 g kg^−1⋅day^−1 by intragastric administration (i.g.)]; 4) PAH (scopolamine, 4 mg kg^−1⋅day^−1 i. p. + PA, 6.24 g kg^−1⋅day^−1 i. g.); 5) PL (scopolamine, 4 mg kg^−1⋅day^−1 i. p. + PMRP, 0.78 g kg^−1⋅day^−1 i. g.); 6) PH (scopolamine, 4 mg kg^−1⋅day^−1 i. p. + PMRP 3.12 g kg^−1⋅day^−1 i. g.); 7) AL (scopolamine, 4 mg kg^−1⋅day^−1 i. p.+ ATR, 0.78 g kg^−1⋅day^−1 i. g.); and 8) AH (scopolamine, 4 mg kg^−1⋅day^−1 i. p. + ATR, 3.12 g kg^−1⋅day^−1 i. g.). […]
Three mice per group were deeply anesthetized with chloral hydrate (320 mg/kg i. p.) 60 min after the behavioral test and perfused through the ascending aorta with PBS. […] The hippocampus tissue was lysed in radioimmunoprecipitation assay buffer containing protease and phosphatase inhibitors; the protein concentration of the lysate was determined with the Bradford assay. […] After three washes with washing buffer and incubation with secondary antibody (1:3,000) for 2 h, protein bands were detected with SuperSignal West Pico Chemiluminescent Substrate (Solarbio, Beijing, China) and the signal intensity of target protein bands was normalized to that of the loading control (actin).

[7] = 4.32 g/kg, oral PA extract 4.32 g/kg once
[8] = oral ATR extract 2.16 g/kg once
[9] = male, Sprague-Dawley, rat, plasma, po, 2.16 g/kg
[10] = male, Sprague-Dawley, rat, plasma, po, 2.16 g/kg, Tmax, oral ATR extract 2.16 g/kg once
[11] = male, Sprague-Dawley, rat, plasma, po, 4.32 g/kg
[12] = male, Sprague-Dawley, rat, plasma, po, 4.32 g/kg, Tmax, oral PA extract 4.32 g/kg once
[13] = 2.16 g/kg, oral PMRP extract 2.16 g/kg once
[14] = oral PMRP extract 2.16 g/kg once

Compound | AUC(0-inf) (in vivo; 2.16 g/kg) [ng·h/mL] | AUC(0-t) (in vivo; 2.16 g/kg) [ng·h/mL] | Cmax (in vivo; 2.16 g/kg) [ng/mL] | half-life (in vivo; 2.16 g/kg) [h] | AUC(0-inf) (in vivo; 4.32 g/kg) [ng·h/mL] | AUC(0-t) (in vivo; 4.32 g/kg) [ng·h/mL] | Cmax (in vivo; 4.32 g/kg) [ng/mL] | Tmax (in vivo; [7]) [h] | Tmax [1, 8] [h] | Tmax ([1]; oral PA extract 4.32 g/kg once) [h] | Plasma concentration after oral PA compared to the level after PMRP or ATR [1] | AUC(0-inf) [1, 9] [ng·h/mL] | AUC(0-t) [1, 9] [ng·h/mL] | Cmax [1, 9] [ng/mL] | half-life [1, 9] [h] | Tmax [1, 10] [h] | AUC(0-inf) [1, 11] [ng·h/mL] | AUC(0-t) [1, 11] [ng·h/mL] | half-life [1, 11] [h] | Tmax [1, 12] [h] | further results
COc1cc(OC)c(OC)cc1C=O [asarylaldehyde] | 1550 | 1440 | 119 ± 52.2 | 7.18 ± 1.23 | 1970 ± 766 | 1710 ± 503 | 200 ± 45 | 0.43 | 2.208 ± 3.217 | 0.431 ± 0.442 | increased |  |  |  |  |  |  |  |  |  | Tmax (in vivo; 2.16 g/kg, oral ATR extract 2.16 g/kg once): 2.21 h; half-life (in vivo; 4.32 g/kg): 7.38 ± 2.94 h
C/C=C/c1cc(OC)c(OC)cc1OC [α-asarone] |  |  |  |  |  |  |  |  | 3.542 ± 3.736 | 0.875 ± 0.699 | increased | 1040 | 600 ± 360 | 73.5 ± 25.9 | 11.8 ± 12.6 | 3.54 | 1240 | 1020 | 8.26 ± 2.7 | 0.88 | Effect on learning and memory deficits ([2]; ref Limón et al., 2009, Shin et al., 2014, Li et al., 2019, 2020): improved learning and memory deficits; Cmax [1, 11]: 101 ± 30.3 ng/mL
C/C=C\c1cc(OC)c(OC)cc1OC [β-asarone] |  |  |  |  |  |  |  |  | 4.778 ± 3.777 | 0.347 ± 0.351 | similar | 1050 | 603 ± 281 | 49.8 ± 16 | 10.7 ± 6.94 | 4.78 | 744 ± 620 | 439 ± 209 | 14 ± 14.8 | 0.35 | 
Cc1cc(O)c2c(c1)C(=O)c1cc(O)cc(O)c1C2=O [emodin] | 7400 | 847 ± 802 | 370 ± 288 | 3.7 ± 6.83 | 4160 | 1810 ± 934 | 363 ± 122 | 0.47 |  | 0.472 ± 0.748 |  |  |  |  |  |  |  |  |  |  | Effect on synaptic impairment (ERK1/2/Nrf2/HO-1 pathway): protected against synaptic impairment; Tmax (in vivo; [13]): 2.76 h; half-life (in vivo; 4.32 g/kg): 14 ± 11.8 h; Tmax [1, 14]: 2.764 ± 4.056 h
OCC1OC(Oc2c(O)cc(O)cc2C=Cc2ccc(O)cc2)C(O)C(O)C1O [THSG, 2,3,5,4′-Tetrahydroxystilbene-2-O-β-D-glucoside] |  |  |  |  |  |  |  |  |  |  | increased | 102 ± 49.7 | 102 ± 49.4 | 147 ± 105 | 0.17 ± 0.136 |  | 1630 | 1520 | 3.01 ± 3.36 | 0.81 | Effect on memory ([2]; by modulating ERK1/2 and CREB activation and increasing BDNF and PSD95 levels, ref Hou et al., 2011, Wang et al., Zhou et al., 2012, Shen et al., 2015, 2016): enhanced memory; Tmax ([1]; male, Sprague-Dawley, rat, plasma, po, 2.16 g/kg, Tmax, oral PMRP extract 2.16 g/kg once): 0.39 h; Cmax [1, 11]: 708 ± 281 ng/mL; Tmax ([1]; oral PA extract 4.32 g/kg once, listed as 2,3,5,4′-Tetrahydroxystilbene-2-O-β-glucoside): 0.806 ± 0.695 h; Tmax ([1]; oral PMRP extract 2.16 g/kg once, listed as 2,3,5,4′-Tetrahydroxystilbene-2-O-β-glucoside): 0.389 ± 0.356 h
O=C(O)c1cc(O)c(O)c(O)c1 [gallic acid] | 2700 | 2460 | 216 ± 47.9 | 6.98 ± 2.15 | 1530 | 831 ± 497 | 246 ± 244 | 0.44 |  | 0.444 ± 0.763 | similar |  |  |  |  |  |  |  |  |  | T1/2 [3]: 19.532 ± 13.369 h; Tmax (in vivo; [13]): 0.69 h; Tmax [1, 14]: 0.694 ± 0.356 h
C/C=C/c1ccc(OC)c(OC)c1 [cis-methyl isoeugenol] |  |  |  |  |  |  |  |  | 3.514 ± 3.753 | 1.583 ± 3.163 | similar | 123 ± 30 | 93.8 ± 20.4 | 19.4 ± 18.8 | 7.49 ± 2.55 | 3.51 | 129 ± 45.5 | 118 ± 45.2 | 8.1 ± 2.69 | 1.58 | Cmax [1, 11]: 24.1 ± 4.99 ng/mL
CN1[C@@H]2C[C@@H](OC(=O)[C@H](CO)c3ccccc3)C[C@H]1[C@@H]1O[C@@H]12 [Scopolamine, Scopolamine Hydrobromide] |  |  |  |  |  |  |  |  |  |  |  |  |  |  |  |  |  |  |  |  | Concentrations of ACh, 5-HT, NE, Epi, Glu and GABA in the cortex [4]: reduced; Immunoreactivity of P90RSK and PSD95 in the hippocampus [5]: reduced; Time to find the platform vs controls (scopolamine-treated mice): significantly longer; Levels of BDNF, TrkB, ERK, p-ERK, CREB and p-CREB proteins in the hippocampus [6]: reduced
